Results reported in ChEMBL document CHEMBL4665657, “2-Phenyl-8-(1-phenylallyl)-chromenone compounds have a pan-PPAR modulator pharmacophore” (Bioorg Med Chem, 2019).
Activity calls are given as the source filed them. The calls are words filed in the database; no cut-off is given here.

Legend:
BMMSC [1] = assay: Induction of adipogenesis in human BMMSC cells assessed as increase in ANGPTL4 mRNA at 1 uM incubated for 3 days by qRT-PCR analysis; assay type: functional, cell-based; details: time 3.0 day
BMMSC [2] = assay: Induction of adipogenesis in human BMMSC cells assessed as increase in ACACB mRNA at 1 uM incubated for 3 days by qRT-PCR analysis; assay type: functional, cell-based; details: time 3.0 day
BMMSC [3] = assay: Induction of adipogenesis in human BMMSC cells assessed as increase in HMGCS2 mRNA at 1 uM incubated for 3 days by qRT-PCR analysis; assay type: functional, cell-based; details: time 3.0 day
BMMSC [4] = assay: Induction of adipogenesis in human BMMSC cells assessed as increase in HMGCR mRNA at 1 uM incubated for 3 days by qRT-PCR analysis; assay type: functional, cell-based; details: time 3.0 day
BMMSC [5] = assay: Induction of adipogenesis in human BMMSC cells assessed as increase in ACOX1 mRNA at 1 uM incubated for 3 days by qRT-PCR analysis; assay type: functional, cell-based; details: time 3.0 day
BMMSC [6] = assay: Induction of adipogenesis in human BMMSC cells assessed as lipid droplet formation at 10 uM incubated for 5 days by oil red O staining based inverted microscopy analysis; assay type: functional, cell-based; details: time 5.0 day
BMMSC [7] = assay: Induction of adipogenesis in human BMMSC cells assessed as increase in adiponectin secretion incubated for 5 days by ELISA; assay type: functional, cell-based; details: time 5.0 day
BMMSC [8] = assay: Induction of adipogenesis in human BMMSC cells assessed as increase in adiponectin secretion at 10 uM incubated for 5 days by ELISA; assay type: functional, cell-based; details: time 5.0 day
BMMSC [9] = assay: Induction of adipogenesis in human BMMSC cells assessed as increase in ANGPTL4 mRNA at 10 uM incubated for 3 days by qRT-PCR analysis; assay type: functional, cell-based; details: time 3.0 day
BMMSC [10] = assay: Induction of adipogenesis in human BMMSC cells assessed as increase in ACACB mRNA at 10 uM incubated for 3 days by qRT-PCR analysis; assay type: functional, cell-based; details: time 3.0 day
BMMSC [11] = assay: Induction of adipogenesis in human BMMSC cells assessed as increase in HMGCS2 mRNA at 10 uM incubated for 3 days by qRT-PCR analysis; assay type: functional, cell-based; details: time 3.0 day
BMMSC [12] = assay: Induction of adipogenesis in human BMMSC cells assessed as increase in HMGCR mRNA at 10 uM incubated for 3 days by qRT-PCR analysis; assay type: functional, cell-based; details: time 3.0 day
BMMSC [13] = assay: Induction of adipogenesis in human BMMSC cells assessed as increase in adiponectin mRNA at 10 uM incubated for 3 days by qRT-PCR analysis; assay type: functional, cell-based; details: time 3.0 day
BMMSC [14] = assay: Induction of adipogenesis in human BMMSC cells assessed as increase in adiponectin secretion at 10 uM in presence of pioglitazone incubated for 5 days by ELISA; assay type: functional, cell-based; details: time 5.0 day
BMMSC [15] = assay: Induction of adipogenesis in human BMMSC cells assessed as increase in adiponectin secretion at 10 uM in presence of GW501516 incubated for 5 days by ELISA; assay type: functional, cell-based; details: time 5.0 day
BMMSC [16] = assay: Induction of adipogenesis in human BMMSC cells assessed as increase in adiponectin secretion at 10 uM in presence of WY14643 incubated for 5 days by ELISA; assay type: functional, cell-based; details: time 5.0 day
[17] = target: T1, Oxysterols receptor LXR-beta (Homo sapiens) (UniProt P55055); assay: Transactivation of LXRbeta (unknown origin) by TR-FRET assay
T1 sequence (whole entry): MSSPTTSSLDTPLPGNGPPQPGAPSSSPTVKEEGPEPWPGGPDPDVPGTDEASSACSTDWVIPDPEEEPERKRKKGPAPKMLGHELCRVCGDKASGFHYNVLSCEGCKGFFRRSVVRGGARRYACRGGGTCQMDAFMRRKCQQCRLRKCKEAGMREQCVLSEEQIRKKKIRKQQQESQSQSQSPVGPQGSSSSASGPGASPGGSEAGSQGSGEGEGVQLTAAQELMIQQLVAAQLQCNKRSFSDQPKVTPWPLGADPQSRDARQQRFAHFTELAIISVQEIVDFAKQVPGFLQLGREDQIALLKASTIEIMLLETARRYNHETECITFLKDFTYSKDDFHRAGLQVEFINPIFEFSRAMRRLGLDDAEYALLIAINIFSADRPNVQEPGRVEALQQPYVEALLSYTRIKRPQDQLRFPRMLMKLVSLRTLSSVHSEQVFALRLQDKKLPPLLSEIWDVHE

[18] = target: T2, Bile acid receptor (Homo sapiens) (UniProt Q96RI1); assay: Transactivation of FXR (unknown origin) by TR-FRET assay
T2 sequence (whole entry): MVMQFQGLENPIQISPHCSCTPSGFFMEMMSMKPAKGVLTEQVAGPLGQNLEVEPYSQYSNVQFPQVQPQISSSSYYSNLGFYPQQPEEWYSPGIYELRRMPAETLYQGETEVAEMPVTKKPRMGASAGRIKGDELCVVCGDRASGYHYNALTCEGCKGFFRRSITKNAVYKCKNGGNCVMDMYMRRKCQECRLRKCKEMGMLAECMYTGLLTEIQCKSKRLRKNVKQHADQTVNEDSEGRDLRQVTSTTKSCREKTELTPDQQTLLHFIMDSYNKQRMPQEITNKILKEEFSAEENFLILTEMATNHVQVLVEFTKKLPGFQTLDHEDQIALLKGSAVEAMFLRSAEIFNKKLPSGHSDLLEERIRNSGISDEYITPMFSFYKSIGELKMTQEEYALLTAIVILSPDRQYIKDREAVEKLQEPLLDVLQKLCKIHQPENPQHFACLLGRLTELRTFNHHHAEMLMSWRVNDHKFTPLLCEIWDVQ

[19] = target: T3, Glucocorticoid receptor (Homo sapiens) (UniProt P04150); assay: Binding affinity to glucocorticoid receptor (unknown origin) by TR-FRET assay
T3 sequence (whole entry): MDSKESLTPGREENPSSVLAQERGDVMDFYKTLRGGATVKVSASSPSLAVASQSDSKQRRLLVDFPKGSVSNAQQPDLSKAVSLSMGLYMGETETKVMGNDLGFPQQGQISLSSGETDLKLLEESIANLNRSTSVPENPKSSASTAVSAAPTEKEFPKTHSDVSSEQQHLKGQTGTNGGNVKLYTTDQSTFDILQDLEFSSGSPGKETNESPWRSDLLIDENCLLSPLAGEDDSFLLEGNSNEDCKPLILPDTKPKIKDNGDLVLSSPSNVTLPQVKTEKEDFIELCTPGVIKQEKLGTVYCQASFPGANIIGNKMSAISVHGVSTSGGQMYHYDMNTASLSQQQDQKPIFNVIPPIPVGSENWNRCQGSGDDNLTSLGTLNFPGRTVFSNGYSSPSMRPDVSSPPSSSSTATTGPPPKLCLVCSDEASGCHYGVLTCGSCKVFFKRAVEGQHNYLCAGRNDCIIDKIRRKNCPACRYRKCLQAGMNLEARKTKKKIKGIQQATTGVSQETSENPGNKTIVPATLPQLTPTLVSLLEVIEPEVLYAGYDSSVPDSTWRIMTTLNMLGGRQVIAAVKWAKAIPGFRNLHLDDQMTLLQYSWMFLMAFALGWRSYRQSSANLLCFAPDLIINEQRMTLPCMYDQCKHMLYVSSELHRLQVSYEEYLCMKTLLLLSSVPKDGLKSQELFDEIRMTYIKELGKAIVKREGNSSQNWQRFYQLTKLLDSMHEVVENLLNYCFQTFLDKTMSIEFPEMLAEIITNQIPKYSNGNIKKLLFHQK

[20] = target: T4, Oxysterols receptor LXR-alpha (Homo sapiens) (UniProt Q13133); assay: Transactivation of LXRalpha (unknown origin) by TR-FRET assay
T4 sequence (whole entry): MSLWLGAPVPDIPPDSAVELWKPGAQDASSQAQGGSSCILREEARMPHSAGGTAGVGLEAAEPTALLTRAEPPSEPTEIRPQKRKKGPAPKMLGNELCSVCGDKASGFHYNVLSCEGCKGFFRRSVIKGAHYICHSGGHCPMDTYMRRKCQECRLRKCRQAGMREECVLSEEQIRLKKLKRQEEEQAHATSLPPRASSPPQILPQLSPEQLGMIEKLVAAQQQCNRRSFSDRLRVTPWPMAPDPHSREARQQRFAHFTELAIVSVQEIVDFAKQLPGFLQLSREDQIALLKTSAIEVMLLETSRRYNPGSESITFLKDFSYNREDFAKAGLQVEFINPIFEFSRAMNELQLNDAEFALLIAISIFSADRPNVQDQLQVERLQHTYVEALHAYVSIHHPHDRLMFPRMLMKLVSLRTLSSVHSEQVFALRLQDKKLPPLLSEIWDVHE

[21] = target: T5, Peroxisome proliferator-activated receptor gamma (Homo sapiens, UniProt P37231); assay: Binding affinity to PPARgamma (unknown origin) by TR-FRET assay
T5 sequence (P37231 whole entry): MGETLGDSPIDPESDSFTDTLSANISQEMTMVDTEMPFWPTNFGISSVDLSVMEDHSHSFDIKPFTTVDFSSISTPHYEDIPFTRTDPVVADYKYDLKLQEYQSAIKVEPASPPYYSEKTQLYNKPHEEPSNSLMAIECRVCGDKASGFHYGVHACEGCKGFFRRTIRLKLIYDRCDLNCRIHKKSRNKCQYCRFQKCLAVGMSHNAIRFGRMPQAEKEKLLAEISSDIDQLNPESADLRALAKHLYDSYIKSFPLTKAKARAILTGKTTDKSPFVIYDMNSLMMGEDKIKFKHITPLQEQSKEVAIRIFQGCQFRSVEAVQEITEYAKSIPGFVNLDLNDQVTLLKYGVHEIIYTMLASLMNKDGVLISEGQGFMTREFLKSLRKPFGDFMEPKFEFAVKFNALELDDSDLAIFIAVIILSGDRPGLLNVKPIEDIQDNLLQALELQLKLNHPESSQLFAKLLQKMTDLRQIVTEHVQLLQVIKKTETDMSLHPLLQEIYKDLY

[22] = target: T6, Peroxisome proliferator-activated receptor delta (Homo sapiens, UniProt Q03181); assay: Binding affinity to PPARdelta (unknown origin) by TR-FRET assay
T6 sequence (Q03181 whole entry): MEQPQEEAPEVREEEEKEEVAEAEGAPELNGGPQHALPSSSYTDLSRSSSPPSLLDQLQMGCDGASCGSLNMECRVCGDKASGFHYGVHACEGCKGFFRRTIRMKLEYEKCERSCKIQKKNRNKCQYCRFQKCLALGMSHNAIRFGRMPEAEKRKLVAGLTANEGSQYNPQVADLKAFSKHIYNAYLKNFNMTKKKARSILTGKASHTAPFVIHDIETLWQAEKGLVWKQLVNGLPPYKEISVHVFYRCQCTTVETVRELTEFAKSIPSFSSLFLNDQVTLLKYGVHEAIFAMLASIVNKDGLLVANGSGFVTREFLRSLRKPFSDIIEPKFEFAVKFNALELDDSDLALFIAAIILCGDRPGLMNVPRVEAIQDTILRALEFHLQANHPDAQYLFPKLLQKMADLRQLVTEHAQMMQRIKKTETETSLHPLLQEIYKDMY

[23] = target: T7, Peroxisome proliferator-activated receptor alpha (Homo sapiens, UniProt Q07869); assay: Binding affinity to PPARalpha (unknown origin) by TR-FRET assay
T7 sequence (Q07869 whole entry): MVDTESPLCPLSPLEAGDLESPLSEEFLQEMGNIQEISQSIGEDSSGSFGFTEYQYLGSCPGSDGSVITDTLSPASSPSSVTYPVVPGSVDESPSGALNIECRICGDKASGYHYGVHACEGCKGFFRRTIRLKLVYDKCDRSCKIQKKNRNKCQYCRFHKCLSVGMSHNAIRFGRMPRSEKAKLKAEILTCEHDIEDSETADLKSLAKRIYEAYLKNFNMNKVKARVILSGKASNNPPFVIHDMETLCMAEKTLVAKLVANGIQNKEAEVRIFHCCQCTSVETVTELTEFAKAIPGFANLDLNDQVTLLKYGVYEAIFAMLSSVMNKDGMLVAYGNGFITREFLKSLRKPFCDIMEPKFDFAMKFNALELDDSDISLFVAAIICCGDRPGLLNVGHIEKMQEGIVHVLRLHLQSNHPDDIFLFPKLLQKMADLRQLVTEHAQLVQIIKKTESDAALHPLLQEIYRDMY

BMMSC [24] = assay: Induction of adipogenesis in human BMMSC cells assessed as increase in ACOX1 mRNA at 10 uM incubated for 3 days by qRT-PCR analysis; assay type: functional, cell-based; details: time 3.0 day

Cc1cc(SCc2sc(-c3ccc(C(F)(F)F)cc3)nc2C)ccc1OCC(=O)O
Activity (BMMSC [1]): Active
Activity (BMMSC [2]): Active
Activity (BMMSC [3]): inactive
Activity (BMMSC [4]): Active
Activity (BMMSC [5]): inactive

C=CC(c1ccc(OC)cc1)c1c(O)cc(O)c2c(=O)cc(-c3ccccc3)oc12 (stereo not drawn)
Activity (BMMSC [6]): Active
Activity (BMMSC [7]): Dose-dependent effect
Activity (BMMSC [8]): Active

C=CC(c1ccc(OC)c(OC)c1)c1c(O)cc(O)c2c(=O)cc(-c3ccccc3)oc12 (stereo not drawn)
Activity (BMMSC [8]): Active

C=CC(c1ccccc1)c1c(O)cc(O)c2c(=O)cc(-c3ccccc3)oc12 (stereo not drawn)
Activity (BMMSC [9]): Active
Activity (BMMSC [10]): Active
Activity (BMMSC [11]): Active
Activity (BMMSC [12]): Active
Activity (BMMSC [13]): Active
Activity (BMMSC [14]): Active
Activity (BMMSC [15]): Active
Activity (BMMSC [16]): Active
Activity [17]: inactive
Activity [18]: inactive
Activity [19]: inactive
Activity [20]: inactive
Ki [21]: 1.41 µM
Ki [22]: 1.18 µM
Ki [23]: 0.96 µM
Activity (BMMSC [6]): Active
Activity (BMMSC [7]): Dose-dependent effect
Activity (BMMSC [8]): Active
Activity (BMMSC [24]): Active
